Assay results from patent publication US9238021B2, “Method of producing a cationic liposomal preparation comprising a lipophilic compound” (MEDIGENE AG, priority 2002, dated 2016).
≈ marks a conversion by molar mass, not a printed value.

Assays:
[1] = murine plasma; cited from earlier work
[2] = human plasma; cited from earlier work
[3] = Solubility of docetaxel in trehalose or water; format: physicochemical

solubility [3] [µM] | SMILES | in vitro half life [1] [min] | half life [2]
– | C/C1=C/C[C@@H](/C(C)=C/c2csc(C)n2)OC(=O)C[C@H](O)C(C)(C)C(=O)[C@H](C)[C@@H](O)[C@@H](C)CCC1 [desoxy-epothilone B] | ~20 | around 3 h
~20 (≈ 16.2 µg/mL) | CC(=O)O[C@@]12CO[C@@H]1C[C@H](O)[C@@]1(C)C(=O)[C@H](O)C3=C(C)[C@@H](OC(=O)[C@H](O)[C@@H](NC(=O)OC(C)(C)C)c4ccccc4)C[C@@](O)([C@@H](OC(=O)c4ccccc4)[C@H]21)C3(C)C [docetaxel] | – | –
